Assays:
hNIS mRNA in KAK-1 cells = experiment: qRT-PCR assay of hNIS mRNA levels after treatments in KAK-1 cells; format: cell-based, human; settings: for Stimulation of hNIS mRNA transcription (in words): qRT-PCR; for Relative hNIS mRNA level: relative to control = 1 (4 copies/10^9 18s RNA), azaC 0.5 μM, NaB 1 mM, CHX 10 μg/ml, 3-AB 7.5 mM, PJ34 30 μmole/liter
Procedure: The basal media and supplements were all from GIBCO/Invitrogen Corporation, Grand Island, N.Y. All thyroid cell lines were grown in phenol red-free RPMI 1640 (GIBCO) with 10% FBS, 100 nmol/L sodium selenite, and 0.1 nmol/L bovine TSH (Sigma) at 37° C. in 5% CO2. KAK-1 cells were also cultured in high-glucose, phenol red-free RPMI 1640 supplemented with 10% FBS, 100 nM sodium selenite, 5 pIU/ml human TSH, 0.1 mM non-essential amino acids, 1 mM sodium pyruvate at 37° C. in 5% CO2. Cell culture media was replenished every 2 days. All chemical reagents were obtained from Sigma Chemical Company (St. Louis, Mo.). In addition, PJ34 was obtained from CalBiochem/EMD Biosciences, Inc. (La Jolla, Calif.) and used at 30 μmole/liter. Cycloheximide (CHX), 3-aminobenzamide (3-AB), 5-azacytidine (azaC), and sodium butyrate (NaB) were from Sigma-Aldrich Chemical Company (St. Louis, Mo.) and used at 10 μg/ml, 7.5 mM, 0.5 μM, 1 mM respectively.
Total RNA was isolated using TRIzol reagent (Invitrogen Corp., Carlsbad, Calif.), genomic DNA contamination removed using DNA-free kit (Ambion Inc., Austin, Tex.), and cDNA synthesized from 2 μg total RNA using Advantage RT-for-PCR kit (BD Biosciences Clontech, Palo Alto, Calif.) with random hexamer primers. TaqMan Universal PCR Master Mix (Applied Biosystems, Foster City, Calif.) and Assay-on-Demand Gene Expression Products (Hs00166567_m1 for hNIS mRNA and Hs999999-1_s1 for 18sRNA, respectively; Applied Biosystems) were used for RNA quantitation. The hNIS fragment (1446-1865, +1 is translation initiation codon “A”) was PCR amplified using NIS-F (5′-ctgcgtggctctctcagtc-3′ SEQ ID NO:6) and NIS-R (5′-ccctccagctccttctgc-3′ SEQ ID NO:7), followed by ligation into pCR2.1 vector (Invitrogen). The same procedure was followed using 18s-F (5′-atggtgaccacgggtgacg-3′ SEQ ID NO:8) and 18s-R (5′-[…]-3′ SEQ ID NO:9) for 18s qPCR standard. DNA preparations of these two plasmids were quantitated, diluted and used as quantitation standards in qPCR measurements.
The qRT-PCR assay was used to measure hNIS mRNA levels after different treatments in KAK-1 cells.

[1] = system: hNIS promoter in KAK-1 cells; experiment: Luciferase reporter assay with pGL3-basic, F4-pGL3-basic and F4Δ-pGL3-basic constructs in KAK-1 cells, PJ34 treatment; format: cell-based, human; settings: PJ34 at 30 μM for 2 days, pGL3-basic, F4-pGL3-basic, F4Δ-pGL3-basic, p<0.05, t-test
Procedure: For the transient transfection assays to monitor the effects of PJ34, PJ34 was administered at 30 μM one hour before DNA transfection mixtures were added to the KAK-1 cultures. Twenty-four hours later, transfection mixtures were replaced with fresh media containing PJ34. Luciferase and Rennilar activities were determined 24 hr later. Luciferase activity was normalized to Rennilar activity to account for the variations in transfection efficiency. Triplicate transfections were performed and data were presented as mean±SD.
PJ34 is a potent inhibitor for PARP-1. Its effect on hNIS transcription was determined using luciferase reporter assay with pGL3-basic, F4-pGL3-basic (containing hNIS promoter from −1252 to −348 bp) and F4Δ-pGL3-basic constructs (the same as F4-pGL3-basic but with deletion of sequence from −667 to −588 bp, encompassing R—NRBS).

[2] = system: factors in KAK-1 nuclear extract binding to NRBS (Probe A); experiment: EMSA with radiolabeled Probe A and nuclear extract from treated KAK-1 cells; format: cell-based, human; settings: nuclear extract from KAK-1 cells treated with azaC 0.5 μM, sodium butyrate 1 mM, CHX 10 μg/ml or combinations
Procedure: Electrophoretic mobility shift assay was performed using radio-labeled NRBS (−684 to −565) oligonucleotides as a probe and nuclear extracts from KAK-1 cells cultured under basal conditions (not expressing hNIS mRNA), as well as with azaC/NaB and azaC/CHX treatments (shown in FIG. 8 on far left).

[3] = system: factor(s) in KAK-1 nuclear extract binding to Probe A (NIS-repressor); experiment: EMSA competition of cold double-stranded oligonucleotides against radiolabeled Probe A with KAK-1 nuclear extract; set-up: species or system human; settings: excess (60×) cold competitor
Procedure: Nuclear extracts were prepared using the NucBuster Protein Extraction kit from Novagen/EMD Biosciences, Inc. (La Jolla, Calif.) following its instructions. The radioactive EMSA probes were end-labeled using T4 polynucleotide kinase in the presence of γ-P^32-ATP (GE Healthcare Bio-Sciences Corp., Piscataway, N.J.), followed by removal of the free radioactive ATP with the QIAquick Nucleotide Removal Kit from Qiagen (Valencia, Calif.). EMSA reaction was performed using the EMSA Accessory Kit (Novagen) following its instructions. Briefly, 1 μL 10 mM DTT, 5 μL 4×EMSA buffer, 1 μL Salmon sperm DNA and 1 μL poly dI:dC were mixed with 3 μL nuclear extracts, 1 μL radioactive EMSA probe and water to make up to 18 μL. In some reactions, antibodies or cold competitive probes were added. The mixtures were incubated on ice for 30 min, Then 2 μL loading dye were added to each reaction tubes, and the samples were loaded onto 7.5% PAGE/0.5×TBE, and run overnight. The gel was dried, exposed to X-ray films that were developed 2-3 days later. The competitive EMSA probes were prepared by annealing the sense and anti-sense single strand synthetic oligos respectively, which are listed in Table 2.

[4] = system: human NIS promoter region (Luc-1/pGL3-basic) in KAK-1 cells; experiment: Transient transfection luciferase reporter assay, Luc-1/pGL3-basic (hNIS promoter -1667 to -348 bp) in KAK-1 cells, protein synthesis inhibitors; format: cell-based; settings: 2 days, Anisomycin at 0.4, 1 μg/ml, Emetine at 1, 2 μg/ml, Puromycin up to highest concentration used (1 μg/ml)
Procedure: The pGL3-basic plasmid, together with phRG-B plasmid (as transfection efficiency control) and pUC-18 (as carrier) were transiently transfected into KAK-1 cells cultured under basal conditions supplemented with 0.01% DMSO (as solvent control), Anisomycin (0.1, 0.4, 1 μg/ml), Emetine (0.5, 1, 2 μg/ml) and Puromycin (0.1, 0.4, 1 μg/ml) respectively for 2 days. The cells were then lysed and firefly luciferase activity and Renilla luciferase activity were quantitated using a luminometer (FIG. 3).
Luc-1/pGL3-basic reporter construct (Luc-1) was prepared containing the promoter region of the human sodium/iodide symporter gene (see Venkataraman et al. 1998 Thyroid 8:63-69 and U.S. Pat. No. 6,015,376; Genebank Accession Number: AF059566) from −1667 to −348 bp (FIG. 2) inserted into pGL3-basic luciferase vector at KpnI and HindIII site upstream of the luciferase coding sequence. The Luc-1/pGL3-basic construct, together with phRG-B plasmid (as transfection efficiency control) and pUC-18 (as carrier) were transiently transfected into KAK-1 cells cultured under basal conditions supplemented with 0.01% DMSO (as solvent control), Anisomycin (0.1, 0.4, 1 μg/ml), Emetine (0.5, 1, 2 μg/ml) and Puromycin (0.1, 0.4, 1 μg/ml) respectively for 2 days. The cells were then lysed and firefly luciferase activity and Renilla luciferase activity were quantitated using luminometer (FIG. 4).

Molecule: NC(=O)c1cccc(N)c1 [3-AB, 3-aminobenzamide]
- Stimulation of hNIS mRNA transcription (in words) (hNIS mRNA in KAK-1 cells): not effective in stimulating hNIS mRNA transcription
- Relative hNIS mRNA level (hNIS mRNA in KAK-1 cells): 1

Molecule: CN(C)CC(=O)Nc1ccc2[nH]c(=O)c3ccccc3c2c1 [PJ34]
- Stimulation of hNIS mRNA transcription (in words) (hNIS mRNA in KAK-1 cells): stimulate hNIS mRNA more than CHX alone
- Relative hNIS mRNA level (hNIS mRNA in KAK-1 cells): 26
- Normalized luciferase activity with versus without PJ34 treatment [1]: stimulated luciferase activity from all the constructs

Molecule: Nc1ncn([C@@H]2O[C@H](CO)[C@@H](O)[C@H]2O)c(=O)n1 [azaC, 5-azacytidine]
- Relative hNIS mRNA level (hNIS mRNA in KAK-1 cells): 5
- Effect of cell treatment on EMSA gel shift pattern (Probe A) [2]: gel shift pattern remained the same

Molecule: Comp-1.3: double-stranded competitive EMSA probe, −643 to −620 of hNIS promoter, Seq ID No:81/82 (chain 1 AGCCTCAATTTCCCCACCTGTCAA; chain 2 TTGACAGGTGGGGAAATTGAGGCT; chemistry not given here)
- Competition against radiolabeled Probe A in EMSA (gel-shift signal) [3]: effectively competed against the radiolabeled Probe A

Molecule: Comp-1.4: double-stranded competitive EMSA probe, −638 to −615 of hNIS promoter, Seq ID No:83/84 (chain 1 CAATTTCCCCACCTGTCAACAGCA; chain 2 TGCTGTTGACAGGTGGGGGAAATTG; chemistry not given here)
- Competition against radiolabeled Probe A in EMSA (gel-shift signal) [3]: fail to compete against the radiolabeled Probe A

Molecule: CC[C@H]1CN2CCc3cc(OC)c(OC)cc3[C@@H]2C[C@@H]1C[C@H]1NCCc2cc(OC)c(OC)cc21 [Emetine]
- Normalized luciferase activity driven by human NIS promoter region (Luc-1/pGL3-basic), compared with pGL3-basic vector [4]: dramatically stimulated the normalized luciferase activity

Molecule: Comp-1.1: double-stranded competitive EMSA probe, −653 to −630 of hNIS promoter, Seq ID No:77/78 (chain 1 GCCCTTTTTGAGCCTCAATTTCCC; chain 2 GGGAAATTGAGGCTCAAAAAGGGC; chemistry not given here)
- Competition against radiolabeled Probe A in EMSA (gel-shift signal) [3]: fail to compete against the radiolabeled Probe A

Molecule: Comp-1.2: double-stranded competitive EMSA probe, −648 to −625 of hNIS promoter, Seq ID No:79/80 (chain 1 TTTTGAGCCTCAATTTCCCCACCT; chain 2 AGGTGGGGAAATTGAGGCTCAAAA; chemistry not given here)
- Competition against radiolabeled Probe A in EMSA (gel-shift signal) [3]: effectively competed against the radiolabeled Probe A

Molecule: COc1ccc(C[C@H]2NC[C@H](O)[C@H]2OC(C)=O)cc1 [Anisomycin]
- Normalized luciferase activity driven by human NIS promoter region (Luc-1/pGL3-basic), compared with pGL3-basic vector [4]: dramatically stimulated the normalized luciferase activity

Molecule: C[C@@H]1C[C@@H]([C@H](O)CC2CC(=O)NC(=O)C2)C(=O)[C@@H](C)C1 [CHX, Cycloheximide]
- Relative hNIS mRNA level (hNIS mRNA in KAK-1 cells): 4

Molecule: COc1ccc(C[C@H](N)C(=O)N[C@H]2[C@@H](O)[C@H](n3cnc4c(N(C)C)ncnc43)O[C@@H]2CO)cc1 [Puromycin]
- Normalized luciferase activity driven by human NIS promoter region (Luc-1/pGL3-basic), compared with pGL3-basic vector [4]: did not stimulate the luciferase activity much

B1: Comp-1: double-stranded competitive EMSA probe, −653 to −615 of hNIS promoter, Seq ID No:75/76 (nucleic acid)
chain 1: GCCCTTTTTGAGCCTCAATTTCCCCACCTGTCAACAGCA
chain 2: TGCTGTTGACAGGTGGGGAAATTGAGGCTCAAAAAGGGC
modifications: chemistry not given here
- Competition against radiolabeled Probe A in EMSA (gel-shift signal) [3]: completely erased the characteristic gel-shift signal

B2: Comp-2: double-stranded competitive EMSA probe, −633 to −595 of hNIS promoter, Seq ID No:85/86 (nucleic acid)
chain 1: TCCCCACCTGTCAACAGCAGACAGTGACAGCTGTGATCA
chain 2: TGATCACAGCTGTCACTGTCTGCTGTTGACAGGTGGGGA
modifications: chemistry not given here
- Competition against radiolabeled Probe A in EMSA (gel-shift signal) [3]: fail to compete against the radiolabeled Probe A

B3: Comp-0.9: double-stranded competitive EMSA probe, −660 to −627 of hNIS promoter, Seq ID No:73/74 (nucleic acid)
chain 1: GTGACATGCCCTTTTTGAGCCTCAATTTCCCCAC
chain 2: GTGGGGAAATTGAGGCTCAAAAAGGGCATGTCAC
modifications: chemistry not given here
- Competition against radiolabeled Probe A in EMSA (gel-shift signal) [3]: fail to compete against the radiolabeled Probe A
